Structures can show the parent of a compound that is named as a salt.
Experiments:
[1] = tested on: SH-SY5Y cells (neuroblastoma, human dopaminergic neuronal cells); details: 24 h
Protocol: SH-SY5Y cells (neuroblastoma, human dopaminergic neuronal cells) were incubated in MEM medium containing 1% antimycotics/antibiotics and 10% FBS. The cells were seeded at a density of 10^5 cell/ […] in a 96-well plate, and then incubated for 24 hours.
The cell line used was SH-SY5Y cells, and the cells were treated with the Vaccinium bracteatum Thunb. fruit hot-water extract at concentrations of 1, 3, 10, 30, and 100 μg/ml to investigate cytotoxicity.
(§1) After 24 hours, cell viability was determined using an MTT assay.
as §1

[2] = tested on: ICR male mice; assay: Forced swimming test after 6-day oral administration; assay type: in vivo; details: comparison group, 6 days
Protocol: The ICR male mice were orally administered with the Vaccinium bracteatum Thunb. fruit extract of the present invention. For a comparative group, escitalopram oxalate used an anti-depressant was orally administered. These were administered for 6 days according to the test. Before drug administration, for the pre-test (pre-swim), tap water around 25° C. was poured into a cylindrical water tank (20 cm in diameter, 40 cm in height) from the bottom of the cylinder to 15 cm, and then the mice were put into the water tank, forced to swim for 15 minutes, taken out from the water, wiped with a dry towel, and then returned to breeding boxes. After 6 days of drug administration, the present test (post-swim) was carried out. […] The recorded image was analyzed excluding the first minute therefrom, and animal behavior during the last 5 minutes was classified into 3 types: immobility behavior (the mouse only floated near the surface of the water, slightly moving while only a part of the upper body including the face was above water), swimming behavior (the mouse moved horizontally around the cylinder moving the front and hind legs in a swimming motion), and climbing behavior (the mouse scratched the wall, somewhat violently kicking the front extremities to move remain above water). The duration of each behavior type was measured.

[3] = tested on: corticosterone (COR); assay: Plasma corticosterone (COR) by ELISA after 6-day administration; assay type: in vivo, mice; details: escitalopram oxalate 10 mg/kg, 6 days; no significance
Protocol: The effects on concentration changes of the neurotransmitter NE associated with depression and the stress hormone COR in normal conditions were measured by isolating plasma from the mice after 6 day-administration of each drug and using the Abnova ELISA kit according to the instruction of the manufacturer.

With `C[C@]12C[C@H](O)[C@H]3[C@@H](CCC4=CC(=O)CC[C@@]43C)[C@@H]1CC[C@@H]2C(=O)CO` [corticosterone] the cytotoxicity ([1]; 1 mM) was 50-60%.

`OO` [H2O2, hydrogen peroxide] was tested, and the cell viability ([1]; 10 μM) was 50-60%.

For `CN(C)CCC[C@@]1(c2ccc(F)cc2)OCc2cc(C#N)ccc21` [escitalopram oxalate], the swimming time ([2]; control 51.82±3.38 seconds) was 128.16 ± 6.65 s, the immobility time ([2]; last 5 min of 6 min swim, control 245.48±4.05 seconds) was 169.65 ± 7.15 s and the “level of the stress hormone corticosterone compared with the control group” value [3] was “decrease tendency”.
